We go through 7 compounds from ChEMBL document CHEMBL1909046, “DrugMatrix in vitro pharmacology data”.

pIC50: −log10 of the molar value.

The target in the first assay is Acetylcholinesterase (Homo sapiens, UniProt P22303). Kind of assay: DRUGMATRIX: Acetylcholinesterase enzyme inhibition (substrate: acetylthiocholine). The class given is cell-based, HEK293. As to conditions: hek293; Not Active = under 50% inhibition at 10 µM.
Sequence of Acetylcholinesterase (P22303 whole entry): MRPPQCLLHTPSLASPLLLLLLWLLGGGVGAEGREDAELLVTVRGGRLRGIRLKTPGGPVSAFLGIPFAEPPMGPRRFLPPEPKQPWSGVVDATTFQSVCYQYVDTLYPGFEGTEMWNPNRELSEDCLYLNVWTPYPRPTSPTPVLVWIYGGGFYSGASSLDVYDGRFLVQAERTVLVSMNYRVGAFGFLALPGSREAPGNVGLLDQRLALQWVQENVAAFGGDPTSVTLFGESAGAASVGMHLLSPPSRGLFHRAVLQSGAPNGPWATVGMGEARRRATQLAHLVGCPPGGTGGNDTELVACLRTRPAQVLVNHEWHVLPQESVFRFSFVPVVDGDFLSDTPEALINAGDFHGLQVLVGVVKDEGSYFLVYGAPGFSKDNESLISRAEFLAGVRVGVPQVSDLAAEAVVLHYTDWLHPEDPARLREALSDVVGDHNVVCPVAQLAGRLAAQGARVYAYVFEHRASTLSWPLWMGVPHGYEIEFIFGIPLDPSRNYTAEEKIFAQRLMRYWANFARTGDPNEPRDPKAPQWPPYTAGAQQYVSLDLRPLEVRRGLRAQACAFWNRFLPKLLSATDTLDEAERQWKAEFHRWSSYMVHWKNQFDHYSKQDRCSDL
In the case of `CCN(CC)CCNC(=O)c1cc(S(C)(=O)=O)ccc1OC` [TIAPRIDE], the IC50 result is reported as “Not Active”.

Consider `Clc1ccccc1CN1CCc2sccc2C1` [TICLOPIDINE], for which the IC50 result is on record as “Not Active”.

`NC1CCN(c2nc3c(cc2F)c(=O)c(C(=O)O)cn3-c2ccc(F)cc2F)C1` (centres undefined) [TOSUFLOXACIN]: the IC50 entry is “Not Active”.

Take `O=C(Nc1ccc(Br)cc1)c1cc(Br)cc(Br)c1O` [TRIBROMSALAN]: the IC50 result was “Not Active”.

With `CC(c1cc2ccccc2s1)N(O)C(N)=O` (centres undefined) [ZILEUTON], the IC50 result is listed as “Not Active”.

Turning to MANGANESE CHLORIDE ANHYDROUS, the IC50 result is “Not Active” and the Ki result is reported as “Not Active”.

For SODIUM ORTHOVANAD, the IC50 result is on record as “Not Active” and the Ki entry was “Not Active”.

For another assay, the target named is T1, Angiotensin-converting enzyme (Oryctolagus cuniculus, UniProt P12822).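 Note: enzymatic inhibition of angiotensin-converting enzyme measured with FAPGG as the substrate; in other assays of this panel Not Active means under 50% inhibition at 10 µM.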
T1 sequence (P12822 whole entry): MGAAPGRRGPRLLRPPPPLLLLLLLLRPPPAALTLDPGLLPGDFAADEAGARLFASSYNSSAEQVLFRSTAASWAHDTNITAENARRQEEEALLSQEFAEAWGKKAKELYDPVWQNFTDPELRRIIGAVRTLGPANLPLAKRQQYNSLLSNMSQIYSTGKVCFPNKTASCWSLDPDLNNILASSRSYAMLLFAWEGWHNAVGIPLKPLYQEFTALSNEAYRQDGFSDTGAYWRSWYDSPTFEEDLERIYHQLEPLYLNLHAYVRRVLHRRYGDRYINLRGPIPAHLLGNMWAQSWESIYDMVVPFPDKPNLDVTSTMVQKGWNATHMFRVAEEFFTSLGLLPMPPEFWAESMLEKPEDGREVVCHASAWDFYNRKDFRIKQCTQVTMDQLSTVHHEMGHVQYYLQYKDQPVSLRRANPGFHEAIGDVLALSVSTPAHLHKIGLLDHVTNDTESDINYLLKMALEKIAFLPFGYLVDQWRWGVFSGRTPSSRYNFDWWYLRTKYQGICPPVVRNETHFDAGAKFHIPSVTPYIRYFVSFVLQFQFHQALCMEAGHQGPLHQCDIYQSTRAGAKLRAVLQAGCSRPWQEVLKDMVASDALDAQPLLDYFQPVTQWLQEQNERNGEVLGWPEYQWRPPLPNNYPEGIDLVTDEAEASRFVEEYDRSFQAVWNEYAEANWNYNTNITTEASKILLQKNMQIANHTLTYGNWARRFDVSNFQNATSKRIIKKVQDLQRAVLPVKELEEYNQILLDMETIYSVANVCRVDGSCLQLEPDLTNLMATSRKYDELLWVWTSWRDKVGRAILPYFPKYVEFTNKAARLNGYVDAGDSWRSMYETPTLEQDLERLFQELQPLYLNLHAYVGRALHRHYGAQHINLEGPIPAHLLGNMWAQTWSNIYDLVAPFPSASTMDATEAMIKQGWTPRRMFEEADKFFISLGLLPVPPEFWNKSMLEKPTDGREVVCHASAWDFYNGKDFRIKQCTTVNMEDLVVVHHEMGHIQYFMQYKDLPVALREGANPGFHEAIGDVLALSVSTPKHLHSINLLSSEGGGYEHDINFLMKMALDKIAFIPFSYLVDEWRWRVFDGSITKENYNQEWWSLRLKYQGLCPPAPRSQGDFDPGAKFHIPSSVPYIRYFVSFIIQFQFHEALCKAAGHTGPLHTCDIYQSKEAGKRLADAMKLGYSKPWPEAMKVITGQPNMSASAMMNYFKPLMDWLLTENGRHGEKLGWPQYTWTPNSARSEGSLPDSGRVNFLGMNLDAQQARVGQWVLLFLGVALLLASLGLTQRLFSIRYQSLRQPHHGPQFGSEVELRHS
In kind it is tissue-based, Lung.
Settings: not given
Consider `CCN(CC)CCNC(=O)c1cc(S(C)(=O)=O)ccc1OC` [TIAPRIDE], for which the IC50 entry is “Not Active”.

For `Clc1ccccc1CN1CCc2sccc2C1` [TICLOPIDINE], the IC50 result is listed as “Not Active”.

As to `NC1CCN(c2nc3c(cc2F)c(=O)c(C(=O)O)cn3-c2ccc(F)cc2F)C1` (centres undefined) [TOSUFLOXACIN], the IC50 result was “Not Active”.

Regarding `O=C(Nc1ccc(Br)cc1)c1cc(Br)cc(Br)c1O` [TRIBROMSALAN], the IC50 result is listed as “Not Active”.

On to `CC(c1cc2ccccc2s1)N(O)C(N)=O` (centres undefined) [ZILEUTON], for which the IC50 result was “Not Active”.

MANGANESE CHLORIDE ANHYDROUS: the IC50 entry is on record as “Not Active” and the Ki result is recorded as “Not Active”.

For SODIUM ORTHOVANAD, the IC50 entry was “Not Active” and the Ki result is given as “Not Active”.

The target of a further assay is T2, Muscarinic acetylcholine receptor M5 (Homo sapiens, UniProt P08912). Note: in other assays of this panel Not Active means under 50% inhibition at 10 µM.
T2 sequence (P08912 whole entry): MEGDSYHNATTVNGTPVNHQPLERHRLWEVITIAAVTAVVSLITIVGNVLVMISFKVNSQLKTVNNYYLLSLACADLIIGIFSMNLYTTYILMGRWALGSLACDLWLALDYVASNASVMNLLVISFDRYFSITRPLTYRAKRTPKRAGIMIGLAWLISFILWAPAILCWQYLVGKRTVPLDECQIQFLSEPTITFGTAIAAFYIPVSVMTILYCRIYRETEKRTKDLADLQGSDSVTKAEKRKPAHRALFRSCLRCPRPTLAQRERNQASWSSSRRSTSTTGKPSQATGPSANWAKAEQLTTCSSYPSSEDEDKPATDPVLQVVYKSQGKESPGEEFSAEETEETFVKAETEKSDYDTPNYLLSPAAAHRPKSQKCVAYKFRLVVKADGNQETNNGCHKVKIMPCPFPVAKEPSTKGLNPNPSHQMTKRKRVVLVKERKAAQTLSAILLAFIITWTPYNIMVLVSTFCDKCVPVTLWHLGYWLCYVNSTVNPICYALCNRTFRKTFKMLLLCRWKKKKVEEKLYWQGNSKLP
The class given is cell membranes, CHO-K1, Membrane. As to conditions: cho-k1.
Regarding `CCN(CC)CCNC(=O)c1cc(S(C)(=O)=O)ccc1OC` [TIAPRIDE], the IC50 result is on record as “Not Active”.

`Clc1ccccc1CN1CCc2sccc2C1` [TICLOPIDINE]: the IC50 result is listed as “Not Active”.

In the case of `NC1CCN(c2nc3c(cc2F)c(=O)c(C(=O)O)cn3-c2ccc(F)cc2F)C1` (centres undefined) [TOSUFLOXACIN], the IC50 result is on record as “Not Active”.

For `O=C(Nc1ccc(Br)cc1)c1cc(Br)cc(Br)c1O` [TRIBROMSALAN], the IC50 entry is reported as “Not Active”.

As for `CC(c1cc2ccccc2s1)N(O)C(N)=O` (centres undefined) [ZILEUTON], the IC50 entry is recorded as “Not Active”.

Consider MANGANESE CHLORIDE ANHYDROUS, for which the IC50 entry is “Not Active” and the Ki entry was “Not Active”.

SODIUM ORTHOVANAD: the IC50 entry was “Not Active” and the Ki result is on record as “Not Active”.

System in another assay: not listed separately
Description: DRUGMATRIX: Glutamate, Kainate radioligand binding (ligand: [3H] Kainic acid). The class given is cell membranes, Rattus norvegicus, Wistar, Brain, Membrane. To be noted: Not Active = under 50% inhibition at 10 µM.
For the compound `CCN(CC)CCNC(=O)c1cc(S(C)(=O)=O)ccc1OC` [TIAPRIDE], the IC50 result is reported as “Not Active” and the Ki result was “Not Active”.

Consider `Clc1ccccc1CN1CCc2sccc2C1` [TICLOPIDINE], for which the IC50 entry was “Not Active” and the Ki result is “Not Active”.

For `NC1CCN(c2nc3c(cc2F)c(=O)c(C(=O)O)cn3-c2ccc(F)cc2F)C1` (centres undefined) [TOSUFLOXACIN], the IC50 entry is “Not Active” and the Ki entry is recorded as “Not Active”.

Turning to `O=C(Nc1ccc(Br)cc1)c1cc(Br)cc(Br)c1O` [TRIBROMSALAN], the IC50 entry is on record as “Not Active” and the Ki entry is “Not Active”.

On to `CC(c1cc2ccccc2s1)N(O)C(N)=O` (centres undefined) [ZILEUTON], for which the IC50 entry is given as “Not Active” and the Ki entry is listed as “Not Active”.

With MANGANESE CHLORIDE ANHYDROUS, the IC50 result is given as “Not Active” and the Ki result is listed as “Not Active”.

In the case of SODIUM ORTHOVANAD, the IC50 entry is on record as “Not Active” and the Ki result is given as “Not Active”.

Another assay concerns the target T3, Adenosine receptor A3 (Homo sapiens, UniProt P0DMS8).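 Note: radioligand binding assay with AB-MECA serving as the labeled ligand; in other assays of this panel Not Active means under 50% inhibition at 10 µM.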
T3 sequence (P0DMS8 whole entry): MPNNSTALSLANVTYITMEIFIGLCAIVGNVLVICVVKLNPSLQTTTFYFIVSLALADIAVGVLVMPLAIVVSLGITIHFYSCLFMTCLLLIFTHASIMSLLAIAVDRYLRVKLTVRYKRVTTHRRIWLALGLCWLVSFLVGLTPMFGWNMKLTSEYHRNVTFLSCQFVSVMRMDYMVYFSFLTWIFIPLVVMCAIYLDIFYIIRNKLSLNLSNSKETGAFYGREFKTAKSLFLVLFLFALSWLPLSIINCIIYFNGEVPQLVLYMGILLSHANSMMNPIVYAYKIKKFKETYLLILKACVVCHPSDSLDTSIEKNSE
The class given is cell membranes, CHO-K1, Membrane. To be noted: cho-k1.
`CCN(CC)CCNC(=O)c1cc(S(C)(=O)=O)ccc1OC` [TIAPRIDE]: the IC50 entry was “Not Active”.

In the case of `Clc1ccccc1CN1CCc2sccc2C1` [TICLOPIDINE], the IC50 result is reported as “Not Active”.

Regarding `NC1CCN(c2nc3c(cc2F)c(=O)c(C(=O)O)cn3-c2ccc(F)cc2F)C1` (centres undefined) [TOSUFLOXACIN], the IC50 result is “Not Active”.

As to `O=C(Nc1ccc(Br)cc1)c1cc(Br)cc(Br)c1O` [TRIBROMSALAN], the IC50 result is recorded as “Not Active”.

For the compound `CC(c1cc2ccccc2s1)N(O)C(N)=O` (centres undefined) [ZILEUTON], the IC50 entry is listed as “Not Active”.

Regarding MANGANESE CHLORIDE ANHYDROUS, the IC50 result was “Not Active” and the Ki result is recorded as “Not Active”.

SODIUM ORTHOVANAD: the IC50 result is listed as “Not Active” and the Ki result was “Not Active”.

The target of another assay is Mitogen-activated protein kinase 14 (Homo sapiens, UniProt Q16539). Also noted: species or system Escherichia coli.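 Note: inhibition of p38alpha enzyme activity in a biochemical kinase assay, with myelin basic protein serving as substrate; in other assays of this panel Not Active means under 50% inhibition at 10 µM.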
Sequence of Mitogen-activated protein kinase 14 (Q16539 whole entry): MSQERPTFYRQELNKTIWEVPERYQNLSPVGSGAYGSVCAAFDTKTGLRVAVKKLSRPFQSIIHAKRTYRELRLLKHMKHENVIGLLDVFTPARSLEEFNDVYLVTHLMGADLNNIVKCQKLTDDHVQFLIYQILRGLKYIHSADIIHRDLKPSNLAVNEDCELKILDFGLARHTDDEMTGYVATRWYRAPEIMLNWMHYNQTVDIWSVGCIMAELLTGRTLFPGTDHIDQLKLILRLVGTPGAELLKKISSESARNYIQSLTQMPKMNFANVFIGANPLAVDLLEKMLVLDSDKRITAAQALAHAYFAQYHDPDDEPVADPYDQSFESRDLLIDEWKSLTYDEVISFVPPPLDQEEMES
Settings: not given
As for `CCN(CC)CCNC(=O)c1cc(S(C)(=O)=O)ccc1OC` [TIAPRIDE], the IC50 entry is “Not Active”.

For `Clc1ccccc1CN1CCc2sccc2C1` [TICLOPIDINE], the IC50 entry is reported as “Not Active”.

As to `NC1CCN(c2nc3c(cc2F)c(=O)c(C(=O)O)cn3-c2ccc(F)cc2F)C1` (centres undefined) [TOSUFLOXACIN], the IC50 result was “Not Active”.

Consider `CC(c1cc2ccccc2s1)N(O)C(N)=O` (centres undefined) [ZILEUTON], for which the IC50 entry is reported as “Not Active”.

Turning to MANGANESE CHLORIDE ANHYDROUS, the IC50 result is on record as “Not Active” and the Ki entry is listed as “Not Active”.

For the compound SODIUM ORTHOVANAD, the IC50 result is “Not Active” and the Ki entry was “Not Active”.

Staying with this assay, now noted: read-out: IC50.
For `O=C(Nc1ccc(Br)cc1)c1cc(Br)cc(Br)c1O` [TRIBROMSALAN], the negative-log IC50 (pIC50) (usually −log10 of the IC50, conventionally taken in molar units) is 6.15.
